Test results from patent publication US4021557A, “11-Aminoalkyl-pyridobenzodiazepinones and salts thereof” (Boehringer Ingelheim GmbH, priority 1974, dated 1977).

Experiments:
[1] = system: acetylcholine-induced bronchospasm; test: Antagonism to acetylcholine-provoked bronchospasm in anesthetized guinea pigs (Konzett and Rossler), i.v.; antiasthmatic / bronchospasmolytic activity; format: in vivo; settings: guinea pig; for ED50: Cavia porcellus, iv, 20γ acetylcholine per kg i.v., graphic extrapolation, read-out: Bronchospasmolytic ED50 against acetylcholine-induced bronchospasm
Description: The antiasthmatic activity was tested as the antagonism to bronchospasm provoked by intravenous administration of 20γ of acetylcholine per kg body weight in anesthetized guinea pigs (according to method of Konzett and Rossler). From the average percentage decrease of the bronchospasm produced by administering various doses of the compounds of the […] invention an ED50 was determined by graphic extrapolation. The compounds were administered intravenously.

[2] = Acute toxicity after i.v. administration in NMRI-mice (Litchfield and Wilcoxon); settings: mouse, in vivo, iv, both sexes, deaths within 14 days, read-out: LD50 in the mouse after i.v. application
Description: The acute toxicity was determined with NMRI-mice of both sexes (body weight 20 gm) after intravenous administration of the compound. 0.1 ml of a 0.9% sodium chloride solution per 10gm of animal was used as the vehicle.

[3] = system: heart rate; test: Effect on heart rate of the anesthetized cat after intravenous administration; format: in vivo; design: key to type of the reaction (heart rate): --: decrease in heart rate; settings: i.v.; for ED10 (dose leading to a 10% alteration of the heart rate) / ED25 (dose leading to a 25% alteration of the heart rate): graphic extrapolation; for type of the reaction (heart rate): tested dosage range 250 - 4,000 γ/kg (A 12.5 - 16,000; W 125 - 4,000)
Description: The effect on the heart rate was tested on cats of both sexes (body weight between 2.3 and 3.5 kg) under chloralose-urethane anesthesia. The heart rate was continuously registered by means of a Grass-tachograph 7P4, controlled by the R-wave of the electrocardiogram. The test compound was injected through a catheter introduced into the vena femoralis.

| Compound | ED50 [1] [mg/kg] | Average duration of effective action in the ED50 range [1] [min] | LD50 at 336 h [2] [mg/kg] | ED10 (dose leading to a 10% alteration of the heart rate) [3] | type of the reaction (heart rate) [3] | ED25 (dose leading to a 25% alteration of the heart rate) [3] |
| --- | --- | --- | --- | --- | --- | --- |
| CN(C)CCN1c2ccccc2N(C)C(=O)c2cccnc21.Cl [B, 6,11-dihydro-11-(2'-dimethylamino-ethyl)-6-methyl-5H-pyrido[2,3-b][1,5]benzodiazepin-5-one hydrochloride] | 0.148 | > 110 | 25.8 |  |  |  |
| CN(C)CCCN1c2ccccc2N(C)C(=O)c2cccnc21.Cl [C, 6,11-dihydro-11-(3'-dimethylamino-n-propyl)-6-methyl-5H-pyrido[2,3-b][1,5]benzodiazepin-5-one hydrochloride] | 0.081 | > 60 | 30.7 | > 4,000 γ/kg | -- |  |
| CNCCCN1c2ccccc2N(C)C(=O)c2cccnc21.Cl [D, 6,11-dihydro-6-methyl-11-(3'-methylamino-n-propyl)-5H-pyrido[2,3-b][1,5]benzodiazepin-5-one hydrochloride] | 0.155 | 45 | 43.2 |  |  |  |
| CCNCCCN1c2ccccc2N(C)C(=O)c2cccnc21.Cl [E, 11-(3'-ethylamino-n-propyl)-6,11-dihydro-6-methyl-5H-pyrido[2,3-b][1,5]benzodiazepin-5-one hydrochloride] | 0.068 | > 90 | 56.1 | 1,050 γ/kg | -- | > 4,000 γ/kg |
| CC(C)NCCCN1c2ccccc2N(C)C(=O)c2cccnc21.Cl [F, 6,11-dihydro-11-(3'-isopropylamino-n-propyl)-6-methyl-5H-pyrido[2,3-b][1,5]benzodiazepin-5one hydrochloride] | 0.172 | > 110 | 43.5 |  |  |  |
| CCN(CC)CCN1c2ccccc2N(C)C(=O)c2cccnc21.Cl [G, 11-(2'-diethylamino-ethyl)-6,11-dihydro-6-methyl-5H-pyrido[2,3-b][1,5]benzodiazepin-5-one hydrochloride] | 0.044 | 50 | 27.1 |  |  |  |
| CCCN(CCC)CCCN1c2ccccc2N(C)C(=O)c2cccnc21.Cl [H, 6,11-dihydro-11-(3'-di-n-propylamino-n-propyl)-6-methyl-5H-pyrido[2,3-b][1,5]benzodiazepin-5-one hydrochloride] | 0.095 | > 70 | 21.7 |  |  |  |
| CC(C)N(CCN1c2ccccc2N(C)C(=O)c2cccnc21)C(C)C.Cl [I, 6,11-dihydro-11-(2'-diisopropylamino-ethyl)-6-methyl-5H-pyrido[2,3-b][1,5]benzodiazepin-5-one hydrochloride] | 0.018 | 40 | 30.3 | 1,300 γ/kg | -- | > 4,000 γ/kg |
| CN1C(=O)c2cccnc2N(CCCN2CCCC2)c2ccccc21.Cl [L, 6,11-dihydro-6-methyl-11-(3'-pyrrolidino-n-propyl)-5H-pyrido[2,3-b][1,5]benzodiazepin-5one hydrochloride] | 0.043 | 120 | 22.7 | 1,900 γ/kg | -- | 3,950 γ/kg |
| CN1C(=O)c2cccnc2N(CCCN2CCCCC2)c2ccccc21.Cl [M, 6,11-dihydro-6-methyl-11-(3'-piperidino-n-propyl)-5H-pyrido[2,3-b][1,5]benzodiazepin-5-one hydrochloride] | 0.063 | > 60 | 10.6 | 1,400 γ/kg | -- | > 4,000 γ/kg |
| CN1C(=O)c2cccnc2N(CCCN2CCCCCC2)c2ccccc21.Cl [N, 6,11-dihydro-11-(3'-hexamethyleneimino-n-propyl)-6-methyl-5H-pyrido[2,3-b][1,5]benzodiazepin-5-one hydrochloride] | 0.064 | > 50 | 12.7 |  |  |  |
| CN1C(=O)c2cccnc2N(CCN2CCCC2)c2ccccc21.Cl [O, 6,11-dihydro-6-methyl-11-(2'-pyrrolidino-ethyl)-5H-pyrido[2,3-b][1,5]benzodiazepin-5-one hydrochloride] | 0.097 | > 30 | 11.4 | > 4,000 γ/kg | -- |  |
| CCN(CC)CCN1c2ccccc2C(=O)N(C)c2cccnc21.Cl [P, 11-(2'-diethylamino-ethyl)-5,11-dihydro-5-methyl-6H-pyrido[2,3-b][1,4]benzodiazepin-6-one hydrochloride] | 0.21 | 110 |  |  |  |  |
| CC(C)N(CCN1c2ccccc2C(=O)N(C)c2cccnc21)C(C)C.Cl [Q, 5,11-dihydro-11-(2'-diisopropylamino-ethyl)-5-methyl-6H-pyrido[2,3-b][1,4]benzodiazepin-6-one hydrochloride] | 0.053 | > 50 | 27 |  |  |  |
| CN(C)CCCN1c2ccccc2C(=O)N(C)c2cccnc21 [R, 5,11-dihydro-11-(3'-dimethylamino-n-propyl)-5-methyl-6H-pyrido[2,3-b][1,4]benzodiazepin-6-one] | 0.19 | > 50 |  |  |  |  |
| CCN(CC)CCCN1c2ccccc2C(=O)N(C)c2cccnc21.Cl [S, 5,11-dihydro-11-(3'-diethylamino-n-propyl)-5-methyl-6H-pyrido[2,3-b][1,4]benzodiazepin-6-one hydrochloride] | 0.123 | > 110 |  |  |  |  |
| CC(C)N(CCCN1c2ccccc2C(=O)N(C)c2cccnc21)C(C)C.Cl [T, 5,11-dihydro-11-(3'-diisopropylamino-n-propyl)-5-methyl-6H-pyrido[2,3-b][1,4]benzodiazepin-6-one hydrochloride] | 0.0165 | 50 | 22.2 | 1,400 γ/kg | -- | 3,600 γ/kg |
| CN1C(=O)c2ccccc2N(CCCN2CCCC2)c2ncccc21.Cl [U, 5,11-dihydro-5-methyl-11-(3-pyrrolidino-n-propyl)-6H-pyrido[2,3-b][1,4]benzodiazepin-6-one hydrochloride] | 0.105 | > 50 | 22.9 | 2,300 γ/kg | -- | > 4,000 γ/kg |
| CN1C(=O)c2ccccc2N(CCCN2CCCCC2)c2ncccc21.Cl [V, 5,11-dihydro-5-methyl-11-(3'-piperidino-n-propyl)-6H-pyrido[2,3-b][1,4]benzodiazepin-6-one hydrochloride] | 0.18 | > 110 | 13.4 | 1,100 γ/kg | -- | > 4,000 γ/kg |
| CN1C(=O)c2ccccc2N(CCCN2CCCCCC2)c2ncccc21.Cl [W, 5,11-dihydro-11-(3'-hexamethyleneimino-n-propyl)-5-methyl-6H-pyrido[2,3-b][1,4]benzodiazepin-6-one hydrochloride] | 0.215 | > 40 | 13.4 | 1,200 γ/kg | -- | > 4,000 γ/kg |
